Publication PMC8658026, “The N-Acetylglucosamine Kinase from Yarrowia lipolytica Is a Moonlighting Protein” (International Journal of Molecular Sciences, 2021)

What was measured:
YlNag5 (NAGA kinase) [1] = biological target: T1, YlNag5 (NAGA kinase) (Yarrowia lipolytica, UniProt Q6C584, F320S); experiment: residual NAGA assay after incubation with extract; format: biochemical
T1 construct: gene YALI0_E20207g

YlNag5 (NAGA kinase) [2] = biological target: T2, YlNag5 (NAGA kinase) (Yarrowia lipolytica, UniProt Q6C584, D214V); experiment: residual NAGA assay after incubation with extract; format: biochemical
T2 construct: gene YALI0_E20207g
T2 sequence (Q6C584 entry or part of it D214V): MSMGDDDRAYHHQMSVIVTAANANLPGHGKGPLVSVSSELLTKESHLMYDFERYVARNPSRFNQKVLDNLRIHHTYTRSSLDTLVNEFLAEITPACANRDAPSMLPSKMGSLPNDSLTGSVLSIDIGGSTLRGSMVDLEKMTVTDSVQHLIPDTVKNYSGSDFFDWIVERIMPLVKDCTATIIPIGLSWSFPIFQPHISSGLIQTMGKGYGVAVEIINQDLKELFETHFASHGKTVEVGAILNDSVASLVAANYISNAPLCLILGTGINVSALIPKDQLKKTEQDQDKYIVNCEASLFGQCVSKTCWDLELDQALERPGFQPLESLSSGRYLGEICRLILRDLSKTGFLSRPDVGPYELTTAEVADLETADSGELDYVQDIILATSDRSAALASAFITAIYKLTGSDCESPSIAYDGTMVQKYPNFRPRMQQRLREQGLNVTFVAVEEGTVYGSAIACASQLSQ

T1 sequence (Q6C584 entry or part of it F320S): as the sequence (Q6C584 entry or part of it D214V) above, with V214D, F320S counted along it

`CC(=O)N[C@H]1C(O)O[C@H](CO)[C@@H](O)[C@@H]1O` (some centres unmarked) [NAGA] was tested, and the “residual NAGA assay after incubation with extract” value (YlNag5 (NAGA kinase) [1]) was “strains expressing the F320S or D214V variants of YlNag5 exhibited low or moderate kinase activity” and the “residual NAGA assay after incubation with extract” value (YlNag5 (NAGA kinase) [2]) was “strains expressing the F320S or D214V variants of YlNag5 exhibited low or moderate kinase activity”.
